The values that follow come from ChEMBL document CHEMBL1140879, “Synthesis of isothiazol-3-one derivatives as inhibitors of histone acetyltransferases (HATs)” (Bioorg Med Chem, 2009).

The term pIC50 denotes the negative decadic logarithm of the IC50, by convention in mol/L.

Structures are written as SMILES. pIC50: −log10 of the molar value.

The target of assay [1] is Histone acetyltransferase KAT2B (Homo sapiens, UniProt Q92831). The assay is described as follows: Inhibition of GST-fused recombinant HAT PCAF expressed in Escherichia coli by filter assay.
Assay [2] addresses T1, Histone acetyltransferase p300 (Homo sapiens, UniProt Q09472). Kind of assay: Inhibition of GST-fused recombinant HAT p300 expressed in Escherichia coli by filter assay.
Assay [3] deals with T1, Histone acetyltransferase p300. Kind of assay: Inhibition of recombinant His-tagged HAT p300 expressed in Sf21-Baculovirus system.
Assay [4] has the same target. The assay is described as follows: Inhibition of HAT p300.

T1 sequence (Q09472 whole entry, the tested form may be a part): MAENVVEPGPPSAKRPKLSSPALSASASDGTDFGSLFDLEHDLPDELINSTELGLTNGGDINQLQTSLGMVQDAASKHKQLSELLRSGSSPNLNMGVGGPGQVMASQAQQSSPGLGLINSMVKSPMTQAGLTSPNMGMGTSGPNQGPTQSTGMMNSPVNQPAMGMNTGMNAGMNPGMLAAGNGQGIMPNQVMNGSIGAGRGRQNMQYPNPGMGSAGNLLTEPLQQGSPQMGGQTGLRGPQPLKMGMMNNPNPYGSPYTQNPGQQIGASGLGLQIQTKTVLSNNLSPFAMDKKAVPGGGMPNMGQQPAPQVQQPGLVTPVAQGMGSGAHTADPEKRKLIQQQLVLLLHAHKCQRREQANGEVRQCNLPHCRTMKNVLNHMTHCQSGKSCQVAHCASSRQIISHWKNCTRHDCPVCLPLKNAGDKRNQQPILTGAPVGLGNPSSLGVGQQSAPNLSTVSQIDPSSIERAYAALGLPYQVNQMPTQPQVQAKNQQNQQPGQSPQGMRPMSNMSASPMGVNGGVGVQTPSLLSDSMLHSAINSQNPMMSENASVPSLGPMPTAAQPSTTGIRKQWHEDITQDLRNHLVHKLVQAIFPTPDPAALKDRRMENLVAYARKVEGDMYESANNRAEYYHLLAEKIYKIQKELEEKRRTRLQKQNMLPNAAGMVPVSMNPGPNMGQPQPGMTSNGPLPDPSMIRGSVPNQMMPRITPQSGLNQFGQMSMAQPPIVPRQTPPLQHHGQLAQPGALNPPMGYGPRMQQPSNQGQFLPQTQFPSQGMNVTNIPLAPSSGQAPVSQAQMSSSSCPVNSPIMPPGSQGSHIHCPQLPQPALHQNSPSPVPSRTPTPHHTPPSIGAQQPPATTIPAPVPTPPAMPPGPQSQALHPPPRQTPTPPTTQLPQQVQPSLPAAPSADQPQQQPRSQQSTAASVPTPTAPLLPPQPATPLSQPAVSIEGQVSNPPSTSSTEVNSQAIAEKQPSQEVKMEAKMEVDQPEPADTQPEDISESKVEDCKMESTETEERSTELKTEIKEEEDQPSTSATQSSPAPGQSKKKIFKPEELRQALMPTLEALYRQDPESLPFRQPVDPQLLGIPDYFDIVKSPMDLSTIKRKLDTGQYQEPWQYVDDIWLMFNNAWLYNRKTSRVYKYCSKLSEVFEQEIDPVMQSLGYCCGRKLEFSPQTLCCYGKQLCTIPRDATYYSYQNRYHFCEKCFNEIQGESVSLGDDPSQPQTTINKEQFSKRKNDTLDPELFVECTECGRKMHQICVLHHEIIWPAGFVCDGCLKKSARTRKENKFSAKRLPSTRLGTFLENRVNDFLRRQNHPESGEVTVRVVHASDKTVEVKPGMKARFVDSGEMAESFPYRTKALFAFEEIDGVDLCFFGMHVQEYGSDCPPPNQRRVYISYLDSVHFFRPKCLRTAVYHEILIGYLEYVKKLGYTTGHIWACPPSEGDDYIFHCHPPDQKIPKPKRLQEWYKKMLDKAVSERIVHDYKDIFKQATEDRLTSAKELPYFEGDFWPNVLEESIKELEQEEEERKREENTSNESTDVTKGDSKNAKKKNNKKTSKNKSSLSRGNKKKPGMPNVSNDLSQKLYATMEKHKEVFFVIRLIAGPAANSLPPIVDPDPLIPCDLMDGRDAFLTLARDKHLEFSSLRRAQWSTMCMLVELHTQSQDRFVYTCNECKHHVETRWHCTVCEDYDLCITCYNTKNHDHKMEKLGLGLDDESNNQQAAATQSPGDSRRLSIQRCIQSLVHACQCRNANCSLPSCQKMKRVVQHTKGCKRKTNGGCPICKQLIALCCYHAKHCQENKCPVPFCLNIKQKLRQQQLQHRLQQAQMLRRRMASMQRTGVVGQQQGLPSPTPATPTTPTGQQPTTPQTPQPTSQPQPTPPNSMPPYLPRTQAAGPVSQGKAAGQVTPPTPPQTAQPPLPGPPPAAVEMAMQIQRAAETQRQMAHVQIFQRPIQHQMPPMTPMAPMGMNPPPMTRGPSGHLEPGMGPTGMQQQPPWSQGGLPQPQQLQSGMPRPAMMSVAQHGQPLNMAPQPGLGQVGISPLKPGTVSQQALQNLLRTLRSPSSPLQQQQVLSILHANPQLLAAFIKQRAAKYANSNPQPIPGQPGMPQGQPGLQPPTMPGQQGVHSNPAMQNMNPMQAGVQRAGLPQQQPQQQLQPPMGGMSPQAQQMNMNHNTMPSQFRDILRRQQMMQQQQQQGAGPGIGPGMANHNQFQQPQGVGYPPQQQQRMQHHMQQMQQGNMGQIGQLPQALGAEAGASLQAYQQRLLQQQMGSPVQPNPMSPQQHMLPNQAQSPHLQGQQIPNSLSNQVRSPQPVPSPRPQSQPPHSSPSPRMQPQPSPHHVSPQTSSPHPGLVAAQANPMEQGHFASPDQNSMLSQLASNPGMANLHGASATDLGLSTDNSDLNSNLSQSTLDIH
Chain of Histone acetyltransferase KAT2B (Q92831 whole entry, the tested form may be a part): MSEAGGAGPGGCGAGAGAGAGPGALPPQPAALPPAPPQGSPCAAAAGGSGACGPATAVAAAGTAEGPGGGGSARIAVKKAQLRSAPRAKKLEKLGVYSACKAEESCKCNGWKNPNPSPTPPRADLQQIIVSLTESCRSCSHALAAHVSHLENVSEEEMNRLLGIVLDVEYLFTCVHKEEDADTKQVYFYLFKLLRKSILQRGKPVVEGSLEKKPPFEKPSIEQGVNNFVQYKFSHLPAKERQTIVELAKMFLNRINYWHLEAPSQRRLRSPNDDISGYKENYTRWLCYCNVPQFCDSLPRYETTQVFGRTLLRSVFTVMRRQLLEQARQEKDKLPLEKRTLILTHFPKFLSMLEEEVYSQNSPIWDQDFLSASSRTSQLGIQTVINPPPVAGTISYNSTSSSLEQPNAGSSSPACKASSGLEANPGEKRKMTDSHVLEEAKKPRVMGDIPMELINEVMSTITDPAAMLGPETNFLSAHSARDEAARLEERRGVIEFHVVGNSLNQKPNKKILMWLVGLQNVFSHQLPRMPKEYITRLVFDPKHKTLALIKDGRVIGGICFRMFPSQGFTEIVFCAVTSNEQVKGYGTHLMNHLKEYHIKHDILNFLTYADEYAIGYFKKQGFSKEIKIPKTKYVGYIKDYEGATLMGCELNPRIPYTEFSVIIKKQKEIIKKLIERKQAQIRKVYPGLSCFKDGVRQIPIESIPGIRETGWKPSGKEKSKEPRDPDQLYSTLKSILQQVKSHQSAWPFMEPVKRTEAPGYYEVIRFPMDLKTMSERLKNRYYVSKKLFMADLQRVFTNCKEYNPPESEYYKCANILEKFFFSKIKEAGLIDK

On to `O=c1c2cccnc2sn1-c1ccccc1`, for which, in assay [1], the pIC50 is 5.21.

As for `CN(C)c1ccc(-n2sccc2=O)cc1`, the pIC50 in assay [1] is 5.27.

Regarding `O=c1cc(CO)sn1-c1ccccc1`, the pIC50 in assay [1] is 3.96.

As for `Cc1csn(-c2ccccc2)c1=O`, the pIC50 in assay [1] was 4.49.

For the compound `[N-]=[N+]=NCc1csn(-c2ccccc2)c1=O`, in assay [1], the pIC50 is 4.37.

For the compound `O=c1ccsn1-c1cccnc1`, the pIC50 was 4.84 in assay [2] and 5.19 in assay [1].

Regarding `O=c1ccsn1-c1cc(F)c(F)c(F)c1`, in assay [1], the pIC50 is 5.51.

In the case of `O=c1ccsn1-c1cccc(Cl)c1F`, in assay [1], the pIC50 was 5.27.

With `O=c1ccsn1-c1ccccn1`, the pIC50 in assay [2] was 4.55; in assay [1], 4.72.

As to `[N-]=[N+]=NCc1cc(=O)n(-c2ccccc2)s1`, in assay [1], the pIC50 was 4.24.

With `Cc1cc(=O)n(-c2ccccc2)s1`, the pIC50 in assay [1] was below 3.70.

Regarding `COCc1csn(-c2ccccc2)c1=O`, the pIC50 in assay [1] was 3.99.

On to `COc1sn(-c2ccccc2)c(=O)c1C`, for which the pIC50 in assay [1] is below 3.70.

As for `O=c1ccsn1-c1ccc(N2CCOCC2)cc1`, the results for the pIC50 in assay [2] and in assay [1] were 5.00 and 5.12, respectively.

For the compound `CC(=O)OCc1cc(=O)n(-c2ccccc2)s1`, the pIC50 in assay [1] is 3.79.

As to `O=c1ccsn1-c1ccncc1`, the pIC50 in assay [2] was 5.52; in assay [1], 5.82.

For `O=c1cc(-c2ccccc2)sn1-c1ccccc1`, in assay [1], the pIC50 was below 3.70.

Consider `Cc1c(Cl)sn(-c2ccccc2)c1=O`, for which the pIC50 in assay [1] is 4.70.

As to `O=C(Nc1ccccc1)OCc1cc(=O)n(-c2ccccc2)s1`, the pIC50 in assay [1] was below 3.70.

With `O=c1ccsn1-c1ccccc1`, the pIC50 in assay [2] was 4.64; in assay [1], 4.55.

Consider `C=CC/C=C\C/C=C\CCCCCCCc1cccc(O)c1C(=O)O` [ANACARDIC ACID], for which, in assay [3], the pIC50 is 5.30.

In assay [4], `C=C(C)[C@@H](CC=C(C)C)C[C@@]12C[C@@H](CC=C(C)C)C(C)(C)[C@@](CC=C(C)C)(C(=O)C(C(=O)c3ccc(O)c(O)c3)=C1O)C2=O` [GARCINOL] had a pIC50 of 5.22.
